Test results published in ChEMBL document CHEMBL1154382, “Preliminary SAR analysis of novel antiproliferative N(6),5'-bis-ureidoadenosine derivatives” (2009).

Assays:
Type in all cases: functional
Conditions in all cases: values are per cent of control
NCI-H522 = assay: Antiproliferative activity against human NCI-H522 cells at 10 uM assessed as cell growth inhibition relative to control
KM12 = assay: Antiproliferative activity against human KM12 cells at 10 uM assessed as cell growth inhibition relative to control
M14 = assay: Antiproliferative activity against human M14 cells at 10 uM assessed as cell growth inhibition relative to control
HCC 2998 = assay: Antiproliferative activity against human HCC2998 cells at 10 uM assessed as cell growth inhibition relative to control
SNB-19 = assay: Antiproliferative activity against human SNB19 cells at 10 uM assessed as cell growth inhibition relative to control
HT-29 = assay: Antiproliferative activity against human HT-29 cells at 10 uM assessed as cell growth inhibition relative to control
SK-MEL-28 = assay: Antiproliferative activity against human SK-MEL-28 cells at 10 uM assessed as cell growth inhibition relative to control
TK-10 = assay: Antiproliferative activity against human TK10 cells at 10 uM assessed as cell growth inhibition relative to control
SF-539 = assay: Antiproliferative activity against human SF539 cells at 10 uM assessed as cell growth inhibition relative to control
COLO 205 = assay: Antiproliferative activity against human COLO205 cells at 10 uM assessed as cell growth inhibition relative to control
IGROV-1 = assay: Antiproliferative activity against human IGROV1 cells at 10 uM assessed as cell growth inhibition relative to control
PC-3 = assay: Antiproliferative activity against human PC3 cells at 10 uM assessed as cell growth inhibition relative to control
MDA-MB-468 = assay: Antiproliferative activity against human MDA-MB-468 cells at 10 uM assessed as cell growth inhibition relative to control
HOP-92 = assay: Antiproliferative activity against human HOP92 cells at 10 uM assessed as cell growth inhibition relative to control
SK-MEL-5 = assay: Antiproliferative activity against human SK-MEL-5 cells at 10 uM assessed as cell growth inhibition relative to control
A498 = assay: Antiproliferative activity against human A498 cells at 10 uM assessed as cell growth inhibition relative to control
NCI-H23 = assay: Antiproliferative activity against human NCI-H23 cells at 10 uM assessed as cell growth inhibition relative to control
T47D = assay: Antiproliferative activity against human T47D cells at 10 uM assessed as cell growth inhibition relative to control
MOLT-4 = assay: Antiproliferative activity against human MOLT4 cells at 10 uM assessed as cell growth inhibition relative to control
UO-31 = assay: Antiproliferative activity against human UO31 cells at 10 uM assessed as cell growth inhibition relative to control
ACHN = assay: Antiproliferative activity against human ACHN cells at 10 uM assessed as cell growth inhibition relative to control
A549 = assay: Antiproliferative activity against human A549 cells at 10 uM assessed as cell growth inhibition relative to control
OVCAR-3 = assay: Antiproliferative activity against human OVCAR-3 cells at 10 uM assessed as cell growth inhibition relative to control
SW-620 = assay: Antiproliferative activity against human SW620 cells at 10 uM assessed as cell growth inhibition relative to control
NCI-H460 = assay: Antiproliferative activity against human NCI-H460 cells at 10 uM assessed as cell growth inhibition relative to control
OVCAR-8 = assay: Antiproliferative activity against human OVCAR8 cells at 10 uM assessed as cell growth inhibition relative to control
K562 = assay: Antiproliferative activity against human K562 cells at 10 uM assessed as cell growth inhibition relative to control
MCF7 = assay: Antiproliferative activity against human MCF7 cells at 10 uM assessed as cell growth inhibition relative to control
RXF 393 = assay: Antiproliferative activity against human RXF393 cells at 10 uM assessed as cell growth inhibition relative to control
SF-295 = assay: Antiproliferative activity against human SF295 cells at 10 uM assessed as cell growth inhibition relative to control
Malme-3M = assay: Antiproliferative activity against human MALME-3M cells at 10 uM assessed as cell growth inhibition relative to control
HOP-62 = assay: Antiproliferative activity against human HOP62 cells at 10 uM assessed as cell growth inhibition relative to control
NCI-H226 = assay: Antiproliferative activity against human NCI-H226 cells at 10 uM assessed as cell growth inhibition relative to control
SNB-75 = assay: Antiproliferative activity against human SNB75 cells at 10 uM assessed as cell growth inhibition relative to control
EKVX = assay: Antiproliferative activity against human EKVX cells at 10 uM assessed as cell growth inhibition relative to control
786-0 = assay: Antiproliferative activity against human 786-0 cells at 10 uM assessed as cell growth inhibition relative to control
HL-60(TB) = assay: Antiproliferative activity against human HL-60(TB) cells at 10 uM assessed as cell growth inhibition relative to control
NCI-H322M = assay: Antiproliferative activity against human NCI-H322M cells at 10 uM assessed as cell growth inhibition relative to control
CCRF-CEM = assay: Antiproliferative activity against human CCRF-CEM cells at 10 uM assessed as cell growth inhibition relative to control
SK-MEL-2 = assay: Antiproliferative activity against human SK-MEL-2 cells at 10 uM assessed as cell growth inhibition relative to control
BT-549 = assay: Antiproliferative activity against human BT549 cells at 10 uM assessed as cell growth inhibition relative to control
MDA-MB-231 = assay: Antiproliferative activity against human MDA-MB-231 cells at 10 uM assessed as cell growth inhibition relative to control
UACC-257 = assay: Antiproliferative activity against human UACC257 cells at 10 uM assessed as cell growth inhibition relative to control
UACC-62 = assay: Antiproliferative activity against human UACC62 cells at 10 uM assessed as cell growth inhibition relative to control
SN12C = assay: Antiproliferative activity against human SN12C cells at 10 uM assessed as cell growth inhibition relative to control
OVCAR-4 = assay: Antiproliferative activity against human OVCAR4 cells at 10 uM assessed as cell growth inhibition relative to control
HCT-15 = assay: Antiproliferative activity against human HCT15 cells at 10 uM assessed as cell growth inhibition relative to control
SF-268 = assay: Antiproliferative activity against human SF268 cells at 10 uM assessed as cell growth inhibition relative to control
DU-145 = assay: Antiproliferative activity against human DU145 cells at 10 uM assessed as cell growth inhibition relative to control
HCT-116 = assay: Antiproliferative activity against human HCT116 cells at 10 uM assessed as cell growth inhibition relative to control
U-251 = assay: Antiproliferative activity against human U251 cells at 10 uM assessed as cell growth inhibition relative to control
CAKI-1 = assay: Antiproliferative activity against human Caki1 cells at 10 uM assessed as cell growth inhibition relative to control
SK-OV-3 = assay: Antiproliferative activity against human SKOV3 cells at 10 uM assessed as cell growth inhibition relative to control
[1] = Antiproliferative activity against human […] cells at 10 uM assessed as cell growth inhibition relative to control
OVCAR-5 = assay: Antiproliferative activity against human OVCAR5 cells at 10 uM assessed as cell growth inhibition relative to control
[2] = Antiproliferative activity against human Hs 578T cells at 10 uM assessed as cell growth inhibition relative to control
LOX IMVI = assay: Antiproliferative activity against human LOXIMVI cells at 10 uM assessed as cell growth inhibition relative to control

CCOC(=O)C[C@H]1[C@@H](O[Si](C)(C)C(C)(C)C)[C@H](n2cnc3c(N)ncnc32)O[C@@H]1CO
growth, % of control at 10 µM (NCI-H522): 92% | growth, % of control at 10 µM (KM12): 109% | growth, % of control at 10 µM (M14): 99% | growth, % of control at 10 µM (HCC 2998): 104% | growth, % of control at 10 µM (SNB-19): 103% | growth, % of control at 10 µM (HT-29): 98% | growth, % of control at 10 µM (SK-MEL-28): 112% | growth, % of control at 10 µM (TK-10): 94% | growth, % of control at 10 µM (SF-539): 91% | growth, % of control at 10 µM (COLO 205): 109% | growth, % of control at 10 µM (IGROV-1): 90% | growth, % of control at 10 µM (PC-3): 85% | growth, % of control at 10 µM (MDA-MB-468): 94% | growth, % of control at 10 µM (HOP-92): 81% | growth, % of control at 10 µM (SK-MEL-5): 81% | growth, % of control at 10 µM (A498): 98% | growth, % of control at 10 µM (NCI-H23): 107% | growth, % of control at 10 µM (T47D): 82% | growth, % of control at 10 µM (MOLT-4): 74% | growth, % of control at 10 µM (UO-31): 72% | growth, % of control at 10 µM (ACHN): 102% | growth, % of control at 10 µM (A549): 100% | growth, % of control at 10 µM (OVCAR-3): 98% | growth, % of control at 10 µM (SW-620): 103% | growth, % of control at 10 µM (NCI-H460): 101% | growth, % of control at 10 µM (OVCAR-8): 103% | growth, % of control at 10 µM (K562): 84% | growth, % of control at 10 µM (MCF7): 89% | growth, % of control at 10 µM (RXF 393): 112% | growth, % of control at 10 µM (SF-295): 97% | growth, % of control at 10 µM (Malme-3M): 93% | growth, % of control at 10 µM (HOP-62): 91% | growth, % of control at 10 µM (NCI-H226): 90% | growth, % of control at 10 µM (SNB-75): 75% | growth, % of control at 10 µM (EKVX): 75% | growth, % of control at 10 µM (786-0): 97% | growth, % of control at 10 µM (HL-60(TB)): 89% | growth, % of control at 10 µM (NCI-H322M): 91% | growth, % of control at 10 µM (CCRF-CEM): 83% | growth, % of control at 10 µM (SK-MEL-2): 106% | growth, % of control at 10 µM (BT-549): 79% | growth, % of control at 10 µM (MDA-MB-231): 90% | growth, % of control at 10 µM (UACC-257): 105% | growth, % of control at 10 µM (UACC-62): 73% | growth, % of control at 10 µM (SN12C): 85% | growth, % of control at 10 µM (OVCAR-4): 97% | growth, % of control at 10 µM (HCT-15): 91% | growth, % of control at 10 µM (SF-268): 98% | growth, % of control at 10 µM (DU-145): 93% | growth, % of control at 10 µM (HCT-116): 94% | growth, % of control at 10 µM (U-251): 99% | growth, % of control at 10 µM (CAKI-1): 92% | growth, % of control at 10 µM (SK-OV-3): 103% | growth, % of control at 10 µM [1]: 99% | growth, % of control at 10 µM (OVCAR-5): 101% | growth, % of control at 10 µM [2]: 102% | growth, % of control at 10 µM (LOX IMVI): 92%
